Target: T1, recombinant human GR (Homo sapiens, UniProt P04150)
T1 construct: purchased Panvera/Invitrogen P2812 (kit P2893)
T1 sequence (P04150 1-777): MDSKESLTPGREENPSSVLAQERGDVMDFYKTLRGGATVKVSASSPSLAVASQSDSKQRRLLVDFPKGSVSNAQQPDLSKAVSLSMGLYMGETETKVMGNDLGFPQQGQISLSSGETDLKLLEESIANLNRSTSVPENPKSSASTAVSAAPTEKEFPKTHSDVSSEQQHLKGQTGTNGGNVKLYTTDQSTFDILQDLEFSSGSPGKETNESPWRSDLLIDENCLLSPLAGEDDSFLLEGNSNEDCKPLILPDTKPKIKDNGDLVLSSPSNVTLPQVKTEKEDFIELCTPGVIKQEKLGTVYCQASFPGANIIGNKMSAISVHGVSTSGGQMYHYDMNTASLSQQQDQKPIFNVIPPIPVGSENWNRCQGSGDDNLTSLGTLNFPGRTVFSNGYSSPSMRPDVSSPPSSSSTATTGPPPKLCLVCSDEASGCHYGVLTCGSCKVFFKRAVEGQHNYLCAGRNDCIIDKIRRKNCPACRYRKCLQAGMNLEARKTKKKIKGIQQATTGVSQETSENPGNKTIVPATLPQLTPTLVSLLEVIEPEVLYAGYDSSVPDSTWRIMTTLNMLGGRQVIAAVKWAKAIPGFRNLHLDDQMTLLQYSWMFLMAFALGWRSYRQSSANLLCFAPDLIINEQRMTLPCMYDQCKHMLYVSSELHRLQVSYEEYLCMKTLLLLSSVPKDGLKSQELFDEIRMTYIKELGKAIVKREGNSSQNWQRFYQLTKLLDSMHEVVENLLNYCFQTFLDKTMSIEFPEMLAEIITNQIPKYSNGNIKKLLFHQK
Assay: Human Glucocorticoid Receptor (GR) Assay (fluorescence polarization competition, Panvera/Invitrogen kit)
Details: GS Red Fluoromone tracer, 2 hours at room temperature, 100% control 10 μM Dexamethasone, read-out: Inhibition of GR binding, IC50
Procedure: Human Glucocorticoid Receptor (GR) Assay The assay is based on a commercial kit from Panvera/Invitrogen (Part number P2893). The assay technology is fluorescence polarization. The kit utilises recombinant human GR (Panvera, Part number P2812), a Fluoromone™ labelled tracer (GS Red, Panvera, Part number P2894) and a Stabilizing Peptide 10× (Panvera, Part number P2815). The GR and Stabilizing Peptide reagents are stored at −70° C. while the GS Red is stored at −20° C. Also included in the kit are 1M DTT (Panvera, Part number P2325, stored at −20° C.) and GR Screening buffer 10× (Panvera, Part number P2814, stored at −70° C. initially but once thawed stored at room temperature). Avoid repeated freeze/thaws for all reagents. The GR Screening buffer 10× comprises 100 mM potassium phosphate, 200 mM sodium molybdate, 1 mM EDTA and 20% DMSO. Test compounds (1 μL) and controls (1 μL) in 100% DMSO were added to black is polystyrene 384-well plates (Greiner low volume black flat-bottom, part number 784076). 0% control was 100% DMSO and 100% control was 10 μM Dexamethasone. Background solution (8 μL; assay buffer 10×, Stabilizing Peptide, DTT and ice cold MQ water) was added to the background wells. GS Red solution (7 μL; assay buffer 10×, Stabilizing Peptide, DTT, GS Red and ice cold water) was added to all wells except background wells. GR solution (7 μL; assay buffer 10×, Stabilizing Peptide, DTT, GR and ice cold water) was added to all wells. The plate was sealed and incubated in a dark at room temperature for 2 hours. The plate was read in an Analyst plate reader (LJL Biosystems/Molecular Devices Corporation) or other similar plate reader capable of recording fluorescence polarization (excitation wavelength 530 nm, emission wavelength 590 nm and a dichroic mirror at 561 nm).

Row | Compound | IC50 [nM]
1 | C[C@]12Cc3cnn(-c4ccc(F)cc4)c3C=C1CC[C@@H]1[C@@H]2[C@@H](O)C[C@@]2(C)[C@H]1CC[C@]2(OC(=O)C1CCCO1)C(=O)SCCO (single isomer, unassigned) [Example 18] | 3.1
2 | C[C@@H]1C[C@H]2[C@@H]3CCC4=Cc5c(cnn5-c5ccc(F)cc5)C[C@]4(C)[C@@]3(F)[C@@H](O)C[C@]2(C)[C@@]1(OC(=O)c1cocn1)C(=O)SCC#N [Example 29, (1R,2R,3aS,3bS,10aS,10bR,11S,12aS)-10b-Fluoro-1-{[(cyanomethyl)sulfanyl]carbonyl}-7-(4-fluorophenyl)-11-hydroxy-2,10a,12a-trimethyl-1,2,3,3a,3b,4,5,7,10,10a,10b,11,12,12a-tetradecahydrocyclopenta[5,6]naphtho[1,2-f]indazol-1-yl 1,3-oxazole-4-carboxylate] | 5.5
3 | C[C@H]1C[C@@H]2[C@H]([C@@H](O)C[C@@]3(C)[C@H]2CC[C@]3(OC(=O)C2CC2)C(=O)SCC#N)[C@@]2(C)Cc3cnn(-c4ccc(F)nc4)c3C=C12 [Example 11, (1R,3aS,3bS,5S,10aR,10bS,11S,12aS)-1-{[(Cyanomethyl)sulfanyl]carbonyl}-7-(6-fluoropyridin-3-yl)-11-hydroxy-5,10a,12a-trimethyl-1,2,3,3a,3b,4,5,7,10,10a,10b,11,12,12a-tetradecahydrocyclopenta[5,6]naphtho[1,2-f]indazol-1-yl cyclopropanecarboxylate] | 2.1
4 | C[C@]12Cc3cnn(-c4ccc(F)nc4)c3C=C1CC[C@H]1[C@@H]3CC[C@](OC(=O)[C@H]4CCCO4)(C(=O)SCF)[C@@]3(C)C[C@H](O)[C@@]12F [Example 13, (1R,3aS,3bS,10aS,10bR,11S,12aS)-10b-Fluoro-1-{[(fluoromethyl)sulfanyl]carbonyl}-7-(6-fluoropyridin-3-yl)-11-hydroxy-10a,12a-dimethyl-1,2,3,3a,3b,4,5,7,10,10a,10b,11,12,12a-tetradecahydrocyclopenta[5,6]naphtho[1,2-f]indazol-1-yl (2R)-tetrahydrofuran-2-carboxylate] | 0.98
5 | COCC(=O)O[C@]1(C(=O)SCC#N)[C@H](C)C[C@H]2[C@@H]3CCC4=Cc5c(cnn5-c5ccc(F)nc5)C[C@]4(C)[C@@]3(F)[C@@H](O)C[C@@]21C [Example 30, (1R,2R,3aS,3bS,10aS,10bR,11S,12aS)-10b-Fluoro-1-{[(cyanomethyl)sulfanyl]carbonyl}-7-(6-fluoropyridin-3-yl)-11-hydroxy-2,10a,12a-trimethyl-1,2,3,3a,3b,4,5,7,10,10a,10b,11,12,12a-tetradecahydrocyclopenta[5,6]naphtho[1,2-f]indazol-1-yl methoxyacetate] | 1.6
6 | C[C@]12Cc3cnn(-c4ccc(F)nc4)c3C=C1CC[C@H]1[C@@H]3CC[C@](OC(=O)C4CCOC4)(C(=O)SCC#N)[C@@]3(C)C[C@H](O)[C@@]12F (single isomer, unassigned) [15 (R)/(S) isomer] | 0.57
7 | C[C@H]1C[C@@H]2[C@H]([C@@H](O)C[C@@]3(C)[C@H]2CC[C@]3(OC(=O)c2cocn2)C(=O)SCC#N)[C@@]2(C)Cc3cnn(-c4ccc(F)nc4)c3C=C12 [Example 10, (1R,3aS,3bS,5S,10aR,10bS,11S,12aS)-1-{[(Cyanomethyl)sulfanyl]carbonyl}-7-(6-fluoropyridin-3-yl)-11-hydroxy-5,10a,12a-trimethyl-1,2,3,3a,3b,4,5,7,10,10a,10b,11,12,12a-tetradecahydrocyclopenta[5,6]naphtho[1,2-f]indazol-1-yl 1,3-oxazole-4-carboxylate] | 0.89
8 | CC12Cc3cnn(-c4ccc(F)nc4)c3C=C1CC[C@@H]1C2[C@@H](O)C[C@@]2(C)[C@H]1CC[C@]2(OC(=O)C1CC1)C(=O)OCC#N (stereo in doubt) [Example 20, (1R,3aS,3bS,10aS,10bR,11S,12aS)-1-{[Cyanomethyloxy]carbonyl}-7-(6-fluoropyridin-3-yl)-11-hydroxy-10a,12a-dimethyl-1,2,3,3a,3b,4,5,7,10,10a,10b,11,12,12a-tetradecahydrocyclopenta[5,6]naphtho[1,2-f]indazol-1-yl cyclopropanecarboxylate] | 2.3
9 | C[C@H]1C[C@@H]2[C@H]([C@@H](O)C[C@@]3(C)[C@H]2CC[C@]3(OC(=O)c2ccco2)C(=O)SCF)[C@@]2(C)Cc3cnn(-c4ccc(F)nc4)c3C=C12 [Example 21, (1R,3aS,3bS,5S,10aR,10bS,11S,12aS)-1-{[(Fluoromethyl)sulfanyl]carbonyl}-7-(6-fluoropyridin-3-yl)-11-hydroxy-5,10a,12a-trimethyl-1,2,3,3a,3b,4,5,7,10,10a,10b,11,12,12a-tetradecahydrocyclopenta[5,6]naphtho[1,2-f]indazol-1-yl furan-2-carboxylate] | 2.8

More lines, in order of falling IC50, values ahead:

Row | IC50 [nM] | Compound
10 | 1.6 | CCC(=O)O[C@]1(C(=O)SCC#N)[C@H](C)C[C@H]2[C@@H]3CCC4=Cc5c(cnn5-c5ccc(F)nc5)C[C@]4(C)[C@@]3(F)[C@@H](O)C[C@@]21C [Example 3, (1R,2R,3aS,3bS,10aS,10bR,11S,12aS)-1-{[(Cyanomethyl)sulfanyl]carbonyl}-10b-fluoro-7-(6-fluoropyridin-3-yl)-11-hydroxy-2,10a,12a-trimethyl-1,2,3,3a,3b,4,5,7,10,10a,10b,11,12,12a-tetradecahydrocyclopenta[5,6]naphtho[1,2-f]indazol-1-yl propanoate]
11 | 1.4 | C[C@]12Cc3cnn(-c4ccc(F)nc4)c3C=C1CC[C@H]1[C@@H]3CC[C@](OC(=O)C4CC4)(C(=O)OCC#N)[C@@]3(C)C[C@H](O)[C@@]12F [Example 19, (1R,3aS,3bS,10aS,10bR,11S,12aS)-1-{[Cyanomethyloxy]carbonyl}-10b-fluoro-7-(6-fluoropyridin-3-yl)-11-hydroxy-10a,12a-dimethyl-1,2,3,3a,3b,4,5,7,10,10a,10b,11,12,12a-tetradecahydrocyclopenta[5,6]naphtho[1,2-f]indazol-1-yl cyclopropanecarboxylate]
12 | 1.1 | COCC(=O)O[C@]1(C(=O)SCC#N)CC[C@H]2[C@@H]3C[C@H](C)C4=Cc5c(cnn5-c5ccc(F)nc5)C[C@]4(C)[C@H]3[C@@H](O)C[C@@]21C [Example 24, (1R,3aS,3bS,5S,10aR,10bS,11S,12aS)-1-{[(Cyanomethyl)sulfanyl]carbonyl}-7-(6-fluoropyridin-3-yl)-11-hydroxy-5,10a,12a-trimethyl-1,2,3,3a,3b,4,5,7,10,10a,10b,11,12,12a-tetradecahydrocyclopenta[5,6]naphtho[1,2-f]indazol-1-yl methoxyacetate]
13 | 0.55 | C[C@]12Cc3cnn(-c4ccc(F)nc4)c3C=C1CC[C@H]1[C@@H]3CC[C@](OC(=O)[C@@H]4CCCO4)(C(=O)SCC#N)[C@@]3(C)C[C@H](O)[C@@]12F [Example 17, (1R,3aS,3bS,10aS,10bR,11S,12aS)-1-{[(Cyanomethyl)sulfanyl]carbonyl}-10b-fluoro-7-(6-fluoropyridin-3-yl)-11-hydroxy-10a,12a-dimethyl-1,2,3,3a,3b,4,5,7,10,10a,10b,11,12,12a-tetradecahydrocyclopenta[5,6]naphtho[1,2-f]indazol-1-yl (2S)-tetrahydrofuran-2-carboxylate]
14 | 0.44 | C[C@]12Cc3cnn(-c4ccc(F)nc4)c3C=C1CC[C@H]1[C@@H]3CC[C@](OC(=O)C4CCOC4)(C(=O)SCF)[C@@]3(C)C[C@H](O)[C@@]12F (single isomer, unassigned) [16 (R)/(S) isomer]
